Measurements from the NIST ThermoML archive (doi:10.1016/j.jct.2018.07.020).
Values joined by “and” are separate entries in the source; they are usually repeats but may differ in a detail not shown here. Equal entries are not always repeated. Numbers after ± are expanded uncertainties.

Columns and labels:
[1] = Liquid, Transpiration method
[2] = Boiling temperature at pressure P; conditions: 7.2 kPa; Liquid; Distillation

Cn1cccn1 [1-methyl-1H-pyrazole]
[1]
Conditions	vapor or sublimation pressure [kPa]
273.4 K	0.3007 ± 0.019
276.4 K	0.3722 ± 0.023
277.2 K	0.3818 ± 0.024
278.7 K	0.4304 ± 0.027
281.6 K	0.5225 ± 0.033
281.8 K	0.5148 ± 0.032
283.3 K	0.5843 ± 0.037
284.6 K	0.6386 ± 0.04
286.5 K	0.7077 ± 0.044
287.8 K	0.7821 ± 0.049
288.3 K	0.8074 ± 0.051
290.5 K	0.9287 ± 0.058
291.4 K	0.9834 ± 0.062
292.5 K	1.077 ± 0.068
294.4 K	1.195 ± 0.075
296.5 K	1.365 ± 0.085
297.4 K	1.456 ± 0.09
298.8 K	1.576 ± 0.098
302.4 K	1.989 ± 0.12
304.7 K	2.313 ± 0.14
306.6 K	2.528 ± 0.16
308.2 K	2.753 ± 0.17

CCn1cccn1 [1-ethylpyrazole]
[1]
Conditions	vapor or sublimation pressure
275.2 K	0.1828 ± 0.012 kPa and 0.1776 ± 0.011 kPa
279.2 K	0.2485 ± 0.015 kPa
280.2 K	0.2616 ± 0.017 kPa
283.2 K	0.3347 ± 0.021 kPa
285.2 K	0.3759 ± 0.024 kPa
287.2 K	0.4482 ± 0.028 kPa
290.2 K	0.5448 ± 0.034 kPa
291.2 K	0.5877 ± 0.037 kPa
294.2 K	0.7128 ± 0.044 kPa
295.2 K	0.7543 ± 0.048 kPa
298.2 K	0.9478 ± 0.059 kPa
300.2 K	1.073 ± 0.067 kPa
302.2 K	1.237 ± 0.077 kPa
303.2 K	1.3 ± 0.082 kPa
305.2 K	1.539 ± 0.097 kPa
306.2 K	1.63 ± 0.1 kPa
311.2 K	2.194 ± 0.14 kPa

Conditions	Boiling temperature at pressure P [°C]
[2]	60 ± 4

Cc1cn[nH]c1 [4-methylpyrazole]
[1]
Conditions	vapor or sublimation pressure [kPa]
296 K	0.0098 ± 0.0007
301 K	0.0149 ± 0.001
305.9 K	0.0226 ± 0.0015
310.8 K	0.0339 ± 0.0022
315.8 K	0.0494 ± 0.0032
320.9 K	0.0719 ± 0.0045
325.7 K	0.099 ± 0.0063
330.6 K	0.1457 ± 0.0093
335.6 K	0.2071 ± 0.013
340.6 K	0.2879 ± 0.018

Cc1cc[nH]n1 [3-methylpyrazole]
[1]
Conditions	vapor or sublimation pressure [kPa]
306.3 K	0.0252 ± 0.0017
308.7 K	0.0308 ± 0.002
311.2 K	0.0369 ± 0.0023
313.8 K	0.0443 ± 0.0028
316.3 K	0.0568 ± 0.0036
318.2 K	0.063 ± 0.004
321.2 K	0.0821 ± 0.0053
323.8 K	0.0978 ± 0.0062
326.2 K	0.1165 ± 0.0073
328.8 K	0.142 ± 0.009
333.2 K	0.1924 ± 0.012

c1ccc(-n2cccn2)cc1 [1-phenylpyrazole]
[1]
Conditions	vapor or sublimation pressure [kPa]
294.2 K	0.00258 ± 0.00018
295.2 K	0.00284 ± 0.00019
297.2 K	0.00324 ± 0.00022
303.2 K	0.00556 ± 0.00039
309.1 K	0.00913 ± 0.00061
315 K	0.01461 ± 0.00096
320.9 K	0.02221 ± 0.0014
327 K	0.03352 ± 0.0022
332.8 K	0.05146 ± 0.0033
338.9 K	0.07723 ± 0.0049
344.9 K	0.1082 ± 0.0068
350.8 K	0.1589 ± 0.01
354.8 K	0.2072 ± 0.013
360.8 K	0.2918 ± 0.018
